Measurements from article PMC6934184, “Selective DNA-PKcs inhibition extends the therapeutic index of localized radiotherapy and chemotherapy” (The Journal of Clinical Investigation, 2019).

Biological target: T1, DDR2 N456S (Homo sapiens, UniProt Q16832, N456S)
T1 construct: purchased Thermo Fisher Scientific (Life Technologies) SelectScreen
Experiment: SelectScreen LanthaScreen
Format: binding
Settings: read-out: % displacement
Outline: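 SelectScreen broad panel; activity (Z'LYTE, Adapta) plus binding formats. ATP: Km app for CSF1R Z'LYTE; 10 for CAMK1 Adapta. Readout = % per kinase.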

T1 sequence (Q16832 22-855 N456S): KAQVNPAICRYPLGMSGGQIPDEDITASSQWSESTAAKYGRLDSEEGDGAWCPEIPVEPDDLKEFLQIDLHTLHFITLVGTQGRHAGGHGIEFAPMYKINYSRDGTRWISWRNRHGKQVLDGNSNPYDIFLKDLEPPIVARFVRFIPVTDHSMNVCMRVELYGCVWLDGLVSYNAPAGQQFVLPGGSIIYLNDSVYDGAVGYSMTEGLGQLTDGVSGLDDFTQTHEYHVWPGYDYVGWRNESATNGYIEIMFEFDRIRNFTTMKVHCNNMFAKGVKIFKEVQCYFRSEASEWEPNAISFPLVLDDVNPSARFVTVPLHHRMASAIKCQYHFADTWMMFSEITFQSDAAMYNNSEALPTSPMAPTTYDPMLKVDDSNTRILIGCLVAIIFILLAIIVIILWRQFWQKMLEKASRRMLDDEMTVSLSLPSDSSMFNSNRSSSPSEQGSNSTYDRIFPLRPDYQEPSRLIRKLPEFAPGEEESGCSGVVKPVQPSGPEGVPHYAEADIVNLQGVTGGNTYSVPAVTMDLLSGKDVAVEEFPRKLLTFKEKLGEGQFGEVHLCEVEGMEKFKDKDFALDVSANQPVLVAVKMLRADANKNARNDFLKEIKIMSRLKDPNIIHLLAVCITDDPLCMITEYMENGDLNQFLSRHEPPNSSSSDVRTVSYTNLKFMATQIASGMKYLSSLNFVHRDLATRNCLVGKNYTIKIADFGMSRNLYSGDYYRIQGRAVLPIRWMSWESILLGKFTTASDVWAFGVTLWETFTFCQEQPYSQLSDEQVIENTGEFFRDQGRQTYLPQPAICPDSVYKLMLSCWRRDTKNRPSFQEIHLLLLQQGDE

SMILES: CN(C(=O)CN1CCOCC1)c1ccc2sc3c(-c4cccc5c(=O)cc(N6CC7CCC(C6)O7)oc45)cccc3c2c1 [NU5455]
- inhibition at 1 µM: 0.5%
